Experimental data taken from PubChem BioAssay AID1963973 (Molecular Pharmacology Branch, DTP, NCI, 2024).
Each block holds one molecule with its values, some of them ahead of it.

System: 883617-216-R-J1-PDC tumor spheroids, viability
Test: Anticancer human tumor 883617-216-R-J1-PDC patient-derived bladder carcinoma cell line growth inhibition [PI3K]
Settings: spheroids with HUVEC and MSC; for IC50: curve of first compound; for viability, T/C: stronger effect = lower value
Description: Combinatorial screen of targeted agents with the PI3K inhibitors inavolisib, alpelisib, duvelisib, and copanlisib in multi-cell type tumor spheroids
A high-throughput screen of multi-cell type tumor spheroids was designed to identify active combinations of targeted small molecules and PI3K pathway inhibitors. Complex spheroids include a stromal component modeled by human endothelial cells (HUVEC) and fibroblasts modeled by human mesenchymal stem cells (MSCs). The concentration ranges selected for each drug and investigational agent were based upon clinically achievable concentrations if the clinical Cmax of the agent was known.
Compounds. The drugs and investigational agents: inavolisib (NSC800729), alpelisib (NSC765974), duvelisib (NSC772469), copanlisib (NSC816437), ipatasertib (NSC767898), afuresertib (NSC778305), talazoparib (NSC767125), sapanisertib (NSC764658), selumetinib (NSC741078), tovorafenib (DAY101, NSC766906), vemurafenib (NSC761431), ravoxertinib (NSC781343), sotorasib (NSC818433), MRTX1133 (NSC 836407), abemaciclib (NSC 768073), palbociclib (NSC758247), venetoclax (NSC 766270), SY5609 (NSC837396), enzalutamide (NSC755605), and darolutamide (NSC825331), were obtained from the National Cancer Institute (NCI) Developmental Therapeutics Program Chemical Repository. The FDA-approved anticancer drug set is available from the NCI Developmental Therapeutics Program. […] The stock solutions were prepared in dimethyl sulfoxide (DMSO, Sigma-Aldrich, St. Louis, MO, cat. D2650) at 800-fold the tested concentration and stored at -70 degrees C prior to their use. All drugs and investigational agents were tested over a range starting from a high concentration at or near the clinical Cmax and decreasing in half-log increments. If the clinical Cmax for an agent had not been determined, the highest concentration tested was 10 microM.
Cell Culture. All cells were maintained in an incubator at 37 degrees C and 5% CO2 with 95% humidity. The PDC lines were cultured according to standard operating procedures established by the NCI PDMR (https://pdmr.cancer.gov/sops/default.htm). All PDCs were thawed and cultured in Matrigel-coated flasks prepared with a working solution of 1X Ham's F-12 nutrient mix, without supplementation (Invitrogen, Waltham, MA, cat. 11765054), 100 U/mL penicillin-streptomycin (Invitrogen, cat. 15140122), and 2.5% Matrigel (Corning Inc., Corning, NY, cat. 354248) for the first three passages. The 354836-022-R-J1-PDC, 475296-252-R-J1-PDC, and 997726-040-R-J2-PDC lines were cultured in 6A media, which includes advanced DMEM/F-12 (Thermo Fisher Scientific, cat. 12634028), 10 mM HEPES (Thermo Fisher Scientific, cat. 15630080), 1X GlutaMAX supplement (Thermo Fisher Scientific, cat. 35050061), 0.1 mg/mL primocin (InvivoGen, San Diego, CA, cat. ant-pm-2), 10% defined fetal bovine serum, heat inactivated (HyClone Laboratories Inc., Logan, UT, cat. SH30070.03HI), 50% L-WRN conditioned media (ATCC, cat. CRL-3276), 1.25 mM N-Acetyl-L-cysteine (Sigma-Aldrich, cat. A9165), 10 mM nicotinamide (Sigma-Aldrich, cat. N0636), 1X B-27 supplement (Thermo Fisher Scientific, cat. 17504044), 1X N-2 supplement (Thermo Fisher Scientific, cat. 17502048), and 10 microM Y-27632 dihydrochloride (Tocris Bioscience, Bristol, United Kingdom, cat. 1254). The 624824-186-R-J2-PDC line was cultured in 6C/Colon 1B media, which includes all 6A media components plus 50 ng/mL human EGF recombinant protein (Thermo Fisher Scientific, cat. PHG0311). […]

[1] = second compound 0.0316 µM, first compound 0.0316 µM
[2] = second compound 0.0316 µM, first compound 0.1 µM
[3] = second compound 0.1 µM, first compound 0.0316 µM
[4] = second compound 0.1 µM, first compound 0.1 µM
[5] = second compound 0.316 µM, first compound 0.0316 µM
[6] = second compound 0.316 µM, first compound 0.1 µM
[7] = second compound 1 µM, first compound 0.0316 µM
[8] = second compound 1 µM, first compound 0.1 µM
[9] = second compound 3.16 µM, first compound 0.0316 µM
[10] = second compound 3.16 µM, first compound 0.1 µM
[11] = second compound 10 µM, first compound 0.0316 µM
[12] = second compound 10 µM, first compound 0.1 µM
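Also: spheroids exposed to agents for 7 days before the viability read.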

IC50 (second compound 0.0316 µM): 5050 nM
IC50 (second compound 0.1 µM): 4460 nM
IC50 (second compound 0.316 µM): < 31.6 nM
IC50 (second compound 1 µM): < 31.6 nM
IC50 (second compound 3.16 µM): < 31.6 nM
IC50 (second compound 10 µM): < 31.6 nM
Compound: CC1(C)CCC(CN2CCN(c3ccc(C(=O)NS(=O)(=O)c4ccc(NCC5CCOCC5)c([N+](=O)[O-])c4)c(Oc4cnc5[nH]ccc5c4)c3)CC2)=C(c2ccc(Cl)cc2)C1 + Cc1nc(NC(=O)N2CCCC2C(N)=O)sc1-c1ccnc(C(C)(C)C(F)(F)F)c1
viability, T/C [1]: 85.3%
viability, T/C [2]: 84%
viability, T/C (second compound 0.0316 µM, first compound 0.316 µM): 87.7%
viability, T/C (second compound 0.0316 µM, first compound 1 µM): 81.2%
viability, T/C (second compound 0.0316 µM, first compound 3.16 µM): 81.8%
viability, T/C (second compound 0.0316 µM, first compound 10 µM): 3.63%
viability, T/C [3]: 66.6%
viability, T/C [4]: 66.1%
viability, T/C (second compound 0.1 µM, first compound 0.316 µM): 79.5%
viability, T/C (second compound 0.1 µM, first compound 1 µM): 67.3%
viability, T/C (second compound 0.1 µM, first compound 3.16 µM): 71.3%
viability, T/C (second compound 0.1 µM, first compound 10 µM): 3.02%
viability, T/C [5]: 47.4%
viability, T/C [6]: 45%
viability, T/C (second compound 0.316 µM, first compound 0.316 µM): 51.2%
viability, T/C (second compound 0.316 µM, first compound 1 µM): 52.6%
viability, T/C (second compound 0.316 µM, first compound 3.16 µM): 44.5%
viability, T/C (second compound 0.316 µM, first compound 10 µM): 4.5%
viability, T/C [7]: 41.3%
viability, T/C [8]: 28.9%
viability, T/C (second compound 1 µM, first compound 0.316 µM): 29.4%
viability, T/C (second compound 1 µM, first compound 1 µM): 33.2%
viability, T/C (second compound 1 µM, first compound 3.16 µM): 30.7%
viability, T/C (second compound 1 µM, first compound 10 µM): 3.44%
viability, T/C [9]: 14.8%
viability, T/C [10]: 14.4%
viability, T/C (second compound 3.16 µM, first compound 0.316 µM): 17.1%
viability, T/C (second compound 3.16 µM, first compound 1 µM): 14.3%
viability, T/C (second compound 3.16 µM, first compound 3.16 µM): 14.7%
viability, T/C (second compound 3.16 µM, first compound 10 µM): 2.57%
viability, T/C [11]: 7.93%
viability, T/C [12]: 12.9%
viability, T/C (second compound 10 µM, first compound 0.316 µM): 7.45%
viability, T/C (second compound 10 µM, first compound 1 µM): 8.13%
viability, T/C (second compound 10 µM, first compound 3.16 µM): 7.77%
viability, T/C (second compound 10 µM, first compound 10 µM): 1.74%

IC50 (second compound 0.0316 µM): 18.3 nM
IC50 (second compound 0.1 µM): 12.6 nM
IC50 (second compound 0.316 µM): 0.358 nM
IC50 (second compound 1 µM): < 0.316 nM
IC50 (second compound 3.16 µM): < 0.316 nM
IC50 (second compound 10 µM): < 0.316 nM
Compound: CC(C)n1nc(-c2ccc3oc(N)nc3c2)c2c(N)ncnc21 + Cc1nc(NC(=O)N2CCCC2C(N)=O)sc1-c1ccnc(C(C)(C)C(F)(F)F)c1
viability, T/C (second compound 0.0316 µM, first compound 0.000316 µM): 79.6%
viability, T/C (second compound 0.0316 µM, first compound 0.001 µM): 72.5%
viability, T/C (second compound 0.0316 µM, first compound 0.00316 µM): 69.5%
viability, T/C (second compound 0.0316 µM, first compound 0.01 µM): 60.3%
viability, T/C [1]: 41.1%
viability, T/C [2]: 18.4%
viability, T/C (second compound 0.1 µM, first compound 0.000316 µM): 61.9%
viability, T/C (second compound 0.1 µM, first compound 0.001 µM): 66.6%
viability, T/C (second compound 0.1 µM, first compound 0.00316 µM): 62.1%
viability, T/C (second compound 0.1 µM, first compound 0.01 µM): 52.9%
viability, T/C [3]: 35.5%
viability, T/C [4]: 15.7%
viability, T/C (second compound 0.316 µM, first compound 0.000316 µM): 47.2%
viability, T/C (second compound 0.316 µM, first compound 0.001 µM): 54%
viability, T/C (second compound 0.316 µM, first compound 0.00316 µM): 45.2%
viability, T/C (second compound 0.316 µM, first compound 0.01 µM): 40.6%
viability, T/C [5]: 25.9%
viability, T/C [6]: 12.7%
viability, T/C (second compound 1 µM, first compound 0.000316 µM): 29.1%
viability, T/C (second compound 1 µM, first compound 0.001 µM): 24.7%
viability, T/C (second compound 1 µM, first compound 0.00316 µM): 38.1%
viability, T/C (second compound 1 µM, first compound 0.01 µM): 22.4%
viability, T/C [7]: 16.4%
viability, T/C [8]: 9.37%
viability, T/C (second compound 3.16 µM, first compound 0.000316 µM): 16%
viability, T/C (second compound 3.16 µM, first compound 0.001 µM): 15.7%
viability, T/C (second compound 3.16 µM, first compound 0.00316 µM): 12.4%
viability, T/C (second compound 3.16 µM, first compound 0.01 µM): 17.6%
viability, T/C [9]: 9.92%
viability, T/C [10]: 4.95%
viability, T/C (second compound 10 µM, first compound 0.000316 µM): 7.13%
viability, T/C (second compound 10 µM, first compound 0.001 µM): 7.02%
viability, T/C (second compound 10 µM, first compound 0.00316 µM): 8.33%
viability, T/C (second compound 10 µM, first compound 0.01 µM): 6.52%
viability, T/C [11]: 5.75%
viability, T/C [12]: 2.9%
